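All cell lines were grown in 96-well plates and treated with compound for 48 hours. At the TGI there is no net growth.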
Tests used:
Assay in all cases: NCI anticancer screen, dose series, 48 h
786-0 renal = tested on: 786-0 renal
A498 renal = tested on: A498 renal
A549 NSCLC = tested on: A549 NSCLC
ACHN renal = tested on: ACHN renal
CAKI-1 renal = tested on: CAKI-1 renal
CCRF-CEM leukemia = tested on: CCRF-CEM leukemia
COLO 205 colon = tested on: COLO 205 colon
DLD-1 colon = tested on: DLD-1 colon
DMS 114 small cell lung = tested on: DMS 114 small cell lung
DMS 273 small cell lung = tested on: DMS 273 small cell lung
HCT-116 colon = tested on: HCT-116 colon
HCT-15 colon = tested on: HCT-15 colon
HL-60(TB) leukemia = tested on: HL-60(TB) leukemia
HOP-18 NSCLC = tested on: HOP-18 NSCLC
HOP-62 NSCLC = tested on: HOP-62 NSCLC
HOP-92 NSCLC = tested on: HOP-92 NSCLC
HT29 colon = tested on: HT29 colon
IGROV1 ovarian = tested on: IGROV1 ovarian
K-562 leukemia = tested on: K-562 leukemia
KM12 colon = tested on: KM12 colon
KM20L2 colon = tested on: KM20L2 colon
LOX IMVI melanoma = tested on: LOX IMVI melanoma
M14 melanoma = tested on: M14 melanoma
M19-MEL melanoma = tested on: M19-MEL melanoma
MALME-3M melanoma = tested on: MALME-3M melanoma
MOLT-4 leukemia = tested on: MOLT-4 leukemia
NCI-H226 lung = tested on: NCI-H226 lung
NCI-H23 lung = tested on: NCI-H23 lung
NCI-H460 lung = tested on: NCI-H460 lung
NCI-H522 lung = tested on: NCI-H522 lung
OVCAR-3 ovarian = tested on: OVCAR-3 ovarian
OVCAR-4 ovarian = tested on: OVCAR-4 ovarian
OVCAR-5 ovarian = tested on: OVCAR-5 ovarian
OVCAR-8 ovarian = tested on: OVCAR-8 ovarian
RPMI-8226 leukemia = tested on: RPMI-8226 leukemia
SF-268 CNS = tested on: SF-268 CNS
SF-295 CNS = tested on: SF-295 CNS
SF-539 CNS = tested on: SF-539 CNS
SK-MEL-2 melanoma = tested on: SK-MEL-2 melanoma
SK-MEL-28 melanoma = tested on: SK-MEL-28 melanoma
SK-MEL-5 melanoma = tested on: SK-MEL-5 melanoma
SK-OV-3 ovarian = tested on: SK-OV-3 ovarian
SN12C renal = tested on: SN12C renal
SNB-19 CNS = tested on: SNB-19 CNS
SNB-75 CNS = tested on: SNB-75 CNS
SNB-78 CNS = tested on: SNB-78 CNS
SR leukemia = tested on: SR leukemia
SW-620 colon = tested on: SW-620 colon
TK-10 renal = tested on: TK-10 renal
U251 CNS = tested on: U251 CNS
UACC-257 melanoma = tested on: UACC-257 melanoma
UACC-62 melanoma = tested on: UACC-62 melanoma
UO-31 renal = tested on: UO-31 renal
XF 498 CNS = tested on: XF 498 CNS
EKVX NSCLC = tested on: EKVX NSCLC
HCC-2998 colon = tested on: HCC-2998 colon
RXF 393 renal = tested on: RXF 393 renal

Nc1nc(SCCC/C=C/B(O)O)nc2c1ncn2C1OC(COP(=O)(O)O)C(O)C1O (stereo unspecified)
TGI (786-0 renal): > 203 µM
TGI (A498 renal): > 203 µM
TGI (A549 NSCLC): > 203 µM
TGI (ACHN renal): > 203 µM
TGI (CAKI-1 renal): > 203 µM
TGI (CCRF-CEM leukemia): > 203 µM
TGI (COLO 205 colon): > 203 µM
TGI (DLD-1 colon): > 203 µM
TGI (DMS 114 small cell lung): > 203 µM
TGI (DMS 273 small cell lung): > 203 µM
TGI (HCT-116 colon): > 203 µM
TGI (HCT-15 colon): > 203 µM
TGI (HL-60(TB) leukemia): > 203 µM
TGI (HOP-18 NSCLC): > 203 µM
TGI (HOP-62 NSCLC): > 203 µM
TGI (HOP-92 NSCLC): > 203 µM
TGI (HT29 colon): > 203 µM
TGI (IGROV1 ovarian): > 203 µM
TGI (K-562 leukemia): > 203 µM
TGI (KM12 colon): > 203 µM
TGI (KM20L2 colon): > 203 µM
TGI (LOX IMVI melanoma): > 203 µM
TGI (M14 melanoma): > 203 µM
TGI (M19-MEL melanoma): > 203 µM
TGI (MALME-3M melanoma): > 203 µM
TGI (MOLT-4 leukemia): > 203 µM
TGI (NCI-H226 lung): > 203 µM
TGI (NCI-H23 lung): > 203 µM
TGI (NCI-H460 lung): > 203 µM
TGI (NCI-H522 lung): > 203 µM
TGI (OVCAR-3 ovarian): > 203 µM
TGI (OVCAR-4 ovarian): > 203 µM
TGI (OVCAR-5 ovarian): > 203 µM
TGI (OVCAR-8 ovarian): > 203 µM
TGI (RPMI-8226 leukemia): > 203 µM
TGI (SF-268 CNS): > 203 µM
TGI (SF-295 CNS): > 203 µM
TGI (SF-539 CNS): > 203 µM
TGI (SK-MEL-2 melanoma): > 203 µM
TGI (SK-MEL-28 melanoma): > 203 µM
TGI (SK-MEL-5 melanoma): > 203 µM
TGI (SK-OV-3 ovarian): > 203 µM
TGI (SN12C renal): > 203 µM
TGI (SNB-19 CNS): > 203 µM
TGI (SNB-75 CNS): > 203 µM
TGI (SNB-78 CNS): > 203 µM
TGI (SR leukemia): > 203 µM
TGI (SW-620 colon): > 203 µM
TGI (TK-10 renal): > 203 µM
TGI (U251 CNS): > 203 µM
TGI (UACC-257 melanoma): > 203 µM
TGI (UACC-62 melanoma): > 203 µM
TGI (UO-31 renal): > 203 µM
TGI (XF 498 CNS): > 203 µM

COc1ccc(S(=O)(=O)N/N=C\c2cc([N+](=O)[O-])cc(I)c2O)c(OC)c1OC
TGI (786-0 renal): 61.4 µM
TGI (A498 renal): 83 µM
TGI (A549 NSCLC): > 100 µM
TGI (ACHN renal): 92.1 µM
TGI (CAKI-1 renal): 67.4 µM
TGI (CCRF-CEM leukemia): 59.1 µM
TGI (COLO 205 colon): 45 µM
TGI (DLD-1 colon): 95.1 µM
TGI (DMS 114 small cell lung): 64.6 µM
TGI (DMS 273 small cell lung): > 100 µM
TGI (EKVX NSCLC): 80.7 µM
TGI (HCC-2998 colon): 86.8 µM
TGI (HCT-15 colon): 55.8 µM
TGI (HL-60(TB) leukemia): 71.4 µM
TGI (HOP-18 NSCLC): 63.5 µM
TGI (HOP-92 NSCLC): 37 µM
TGI (HT29 colon): > 100 µM
TGI (IGROV1 ovarian): > 100 µM
TGI (K-562 leukemia): > 100 µM
TGI (KM12 colon): > 100 µM
TGI (KM20L2 colon): > 100 µM
TGI (LOX IMVI melanoma): 92.4 µM
TGI (M14 melanoma): 77.6 µM
TGI (M19-MEL melanoma): 87.2 µM
TGI (MALME-3M melanoma): 85.2 µM
TGI (MOLT-4 leukemia): 64.9 µM
TGI (NCI-H226 lung): 41.9 µM
TGI (NCI-H23 lung): 67.1 µM
TGI (NCI-H460 lung): > 100 µM
TGI (OVCAR-3 ovarian): 62.8 µM
TGI (OVCAR-4 ovarian): 72.7 µM
TGI (OVCAR-5 ovarian): > 100 µM
TGI (OVCAR-8 ovarian): > 100 µM
TGI (RPMI-8226 leukemia): 71.6 µM
TGI (RXF 393 renal): 54.6 µM
TGI (SF-268 CNS): 75 µM
TGI (SF-295 CNS): > 100 µM
TGI (SK-MEL-2 melanoma): 45.3 µM
TGI (SK-MEL-28 melanoma): 64.7 µM
TGI (SK-MEL-5 melanoma): 45.5 µM
TGI (SK-OV-3 ovarian): 64 µM
TGI (SN12C renal): > 100 µM
TGI (SNB-19 CNS): 76.3 µM
TGI (SNB-75 CNS): 70.1 µM
TGI (SNB-78 CNS): 74 µM
TGI (SW-620 colon): > 100 µM
TGI (TK-10 renal): > 100 µM
TGI (U251 CNS): 66 µM
TGI (UACC-257 melanoma): 75.5 µM
TGI (UACC-62 melanoma): 45.4 µM
TGI (UO-31 renal): 40.2 µM
TGI (XF 498 CNS): 48 µM
